Laboratory results taken from the supplement of paper PMC10307832.

What was measured:
Experiment in all cases: relative viability (nuclei count vs DMSO), 5 days (fraction); higher = more cells survive
[1] = compound: C=CCn1c(=O)c2cnc(Nc3ccc(N4CCN(C)CC4)cc3)nc2n1-c1cccc(C(C)(C)O)n1 [Adavosertib] + O=C(CCCCCCC(=O)Nc1ccccc1)NO [Vorinostat] (partner 1 µM)
Summary of the method: (§1)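 Dosing by pin tool came one day after lung cancer cell lines were seeded in 1536-well plates, using either one drug or a fixed anchor-drug dose plus five library-drug doses (not always all listed) in √10 steps. After 5 days, nuclei were counted on 4× images. Relative viability is treated-well nuclei count divided by vehicle-well nuclei count, and values are medians of duplicate plates.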

[2] = compound: COc1nc(N)nc2c1ncn2[C@@H]1O[C@H](CO)[C@@H](O)[C@@H]1O [Nelarabine] + CCNC(=O)c1noc(-c2cc(C(C)C)c(O)cc2O)c1-c1ccc(CN2CCOCC2)cc1 [Luminespib] (partner 0.01 µM)
Summary of the method: as §1

[3] = compound: COc1nc(N)nc2c1ncn2[C@@H]1O[C@H](CO)[C@@H](O)[C@@H]1O [Nelarabine] + C[C@]1(O)C[C@@H](c2nc(-c3ccc4ccc(-c5ccccc5)nc4c3)c3c(N)nccn32)C1 [Linsitinib] (partner 1 µM)
Summary of the method: as §1

[4] = compound: COc1nc(N)nc2c1ncn2[C@@H]1O[C@H](CO)[C@@H](O)[C@@H]1O [Nelarabine] + O=C(c1cc(Cc2n[nH]c(=O)c3ccccc23)ccc1F)N1CCN(C(=O)C2CC2)CC1 [Olaparib] (partner 8 µM)
Summary of the method: as §1

Cell Line	relative viability ([1]; first compound 0.01 µM)	relative viability ([1]; first compound 0.03162 µM)	relative viability ([1]; first compound 0.1 µM)	relative viability ([1]; first compound 0.3162 µM)	relative viability ([2]; first compound 0.03162 µM)	relative viability ([2]; first compound 0.1 µM)	relative viability ([2]; first compound 0.3162 µM)	relative viability ([2]; first compound 1 µM)	relative viability ([3]; first compound 0.01 µM)	relative viability ([3]; first compound 0.03162 µM)	relative viability ([3]; first compound 0.1 µM)	relative viability ([3]; first compound 0.3162 µM)	relative viability ([3]; first compound 1 µM)	relative viability ([4]; first compound 0.01 µM)	relative viability ([4]; first compound 0.03162 µM)	relative viability ([4]; first compound 0.1 µM)	relative viability ([4]; first compound 0.3162 µM)	relative viability ([4]; first compound 1 µM)	relative viability ([2]; first compound 0.01 µM)
H3255	0.763	0.908	0.828	1	0.889	1	0.853	0.737	1.31	1.09	1.12	0.885	0.957	0.624	0.553	0.54	0.583	0.558	–
NCI-H2085	0.782	0.807	0.765	0.649	0.48	0.427	0.518	0.434	1.3	0.747	0.848	0.883	0.867	0.815	0.768	0.731	0.802	0.74	0.498
NCI-H1355	0.609	0.649	0.679	0.568	0.618	0.667	0.629	0.713	1.04	0.688	0.739	0.822	0.887	0.824	0.6	0.684	0.766	0.74	0.763
SK-MES-1	1.09	1.06	0.778	0.348	0.622	0.748	0.847	0.797	1.15	1.09	1.03	1.1	1.08	0.819	0.66	0.707	0.773	0.762	0.954
NCI-H1755	0.935	0.864	0.682	0.546	0.456	0.755	0.539	0.56	1.01	0.999	0.989	1.1	0.995	0.878	0.966	0.931	0.938	0.927	0.463
NCI-H650	0.367	0.428	0.443	0.333	0.726	0.759	0.708	0.718	0.927	0.947	0.868	0.874	1	0.525	0.369	0.413	0.402	0.405	0.857
COR-L 105	0.892	0.848	0.898	0.677	0.822	0.792	0.669	0.904	0.863	1.03	0.95	1.04	0.984	0.554	0.666	0.592	0.697	0.541	0.701
BEN	0.628	0.553	0.669	0.592	0.131	0.371	0.488	0.331	1.27	0.818	1	1.04	1.07	1.3	1.08	1.11	1.04	1.25	0.323
NCI-H322M	0.782	0.842	0.722	0.564	0.84	0.79	0.834	0.967	1.05	1.11	0.816	0.901	0.924	0.79	0.75	0.701	0.827	0.836	0.917
NCI-H596	0.691	0.637	0.613	0.415	0.996	1.08	1.12	0.988	1.15	1.2	1.07	1.16	1.04	0.654	0.708	0.759	0.756	0.728	1.04
EPLC-272H	0.384	0.481	0.281	0.14	0.483	0.446	0.259	0.301	1.35	1.11	1.18	1.09	1.21	1.13	0.881	0.646	0.842	0.769	0.137
NCI-H647	0.632	0.538	0.643	0.212	0.111	0.193	0.128	0.136	1.7	1.02	1.26	1.21	1.35	0.57	0.498	0.633	0.541	0.647	0.177
NCI-H2009	0.829	0.743	0.9	0.676	1.05	1.02	1.07	1.05	1.29	1.26	1.14	1.23	1.19	0.746	0.607	0.834	0.725	0.855	1.16
NCI-H2228	–	0.606	0.536	0.294	0.156	–	0.161	0.151	0.519	0.832	–	0.63	0.898	0.664	0.574	0.322	0.826	0.447	0.182
NCI-H1395	0.595	0.759	0.619	0.504	0.691	0.773	0.707	0.987	1.1	1.15	1.17	0.974	1.2	0.465	0.431	0.403	0.464	0.519	0.666
LK-2	0.265	0.362	0.351	0.306	–	0.178	0.146	0.173	1.24	–	0.608	0.691	0.673	0.689	–	0.701	0.601	0.635	0.161
NCI-H520	0.756	0.734	0.681	0.59	0.249	0.184	0.27	0.218	1.19	0.889	1.24	1.08	1.05	0.29	0.29	0.343	0.366	0.363	0.252

Cell Line	relative viability ([1]; first compound 0.01 µM)	relative viability ([1]; first compound 0.03162 µM)	relative viability ([1]; first compound 0.1 µM)	relative viability ([1]; first compound 0.3162 µM)	relative viability ([2]; first compound 0.03162 µM)	relative viability ([2]; first compound 0.1 µM)	relative viability ([2]; first compound 0.3162 µM)	relative viability ([2]; first compound 1 µM)	relative viability ([3]; first compound 0.01 µM)	relative viability ([3]; first compound 0.03162 µM)	relative viability ([3]; first compound 0.1 µM)	relative viability ([3]; first compound 0.3162 µM)	relative viability ([3]; first compound 1 µM)	relative viability ([4]; first compound 0.01 µM)	relative viability ([4]; first compound 0.03162 µM)	relative viability ([4]; first compound 0.1 µM)	relative viability ([4]; first compound 0.3162 µM)	relative viability ([4]; first compound 1 µM)	relative viability ([2]; first compound 0.01 µM)
CAL-12T	0.797	0.889	0.821	0.741	0.315	0.367	0.699	0.394	0.857	0.931	0.809	0.778	0.832	0.662	0.87	0.748	0.676	0.73	0.32
NCI-H460	0.712	0.702	0.906	0.355	0.0328	0.0352	0.0376	0.0317	1.09	0.891	1.12	1.21	0.731	0.748	0.581	0.479	0.552	0.521	0.0293
NCI-H1944	0.541	0.531	0.563	0.369	0.775	0.793	0.73	0.745	1.28	1.16	1.38	1.21	1.08	0.486	0.436	0.481	0.435	0.419	0.925
NCI-H1437	0.985	0.784	0.936	0.816	1.02	1.13	1.21	1.02	1.27	1.05	0.998	1.08	1.01	0.701	0.611	0.656	0.695	0.611	1.3
NCI-H2087	0.812	0.637	0.702	0.826	0.125	0.155	0.18	0.196	1.06	0.897	1.06	1.05	0.914	0.713	0.421	0.73	0.68	0.72	0.193
LU99A	0.485	0.486	0.462	0.307	0.235	0.339	0.282	0.279	0.534	0.461	0.669	0.581	0.617	0.276	0.239	0.252	0.249	0.26	0.239
NCI-H1993	0.725	0.791	0.84	1.05	0.721	0.917	0.965	0.798	0.803	0.7	0.834	0.662	0.668	1.19	0.993	0.865	0.939	0.984	0.861
NCI-H2347	0.548	0.71	0.615	0.533	0.743	0.621	0.48	0.478	1.08	1.02	0.968	0.939	1.04	0.658	0.417	0.527	0.574	0.52	0.463
NCI-H1734	0.923	0.865	0.622	0.33	0.161	0.193	0.209	0.187	0.954	0.855	0.932	0.931	0.939	0.688	0.597	0.689	0.61	0.654	0.193
HCC-44	1.09	1.06	1.09	1.07	1.34	0.965	1.1	1.24	0.712	0.678	0.678	0.657	0.691	1.07	0.972	0.948	0.975	0.986	1.33
LCLC-97TM1	0.809	0.71	0.77	0.573	0.688	0.856	0.713	0.78	0.222	0.163	0.242	0.225	0.186	–	–	0.413	0.358	0.388	0.912
HOP-62	0.689	0.653	0.733	0.62	0.736	1	1.1	0.961	0.933	0.967	1.11	0.872	0.801	0.479	0.315	0.283	0.368	0.458	1.19
NCI-H2405	–	0.882	0.965	0.895	0.844	0.646	0.762	0.696	0.98	0.853	0.898	0.966	0.872	0.948	0.834	0.83	0.899	0.896	0.697
SK-LU-1	0.734	0.831	0.666	0.453	0.154	0.215	0.199	0.223	1.45	0.835	1.1	1.11	1.35	0.524	0.314	0.5	0.505	0.397	0.225
NCI-H1915	0.552	0.521	0.53	0.373	0.87	0.912	0.841	0.988	1.15	1.08	1.06	1.1	1.1	0.25	0.264	0.261	0.251	0.24	1.31
NCI-H1666	1.06	0.865	0.935	1.01	0.962	0.898	1	1	0.911	0.766	0.906	0.797	0.788	0.681	0.638	0.737	0.665	0.769	0.991
NCI-H441	0.848	0.829	0.881	0.72	0.372	0.286	0.294	0.268	0.679	0.605	0.614	0.52	0.603	0.5	0.518	0.561	0.677	0.697	0.306
